Several values for one entry are separate records, joined by “and”; a condition that tells them apart may be missing. Equal values may be shown once.
Tests used:
anthrax lethal factor = anthrax lethal factor (Bacillus anthracis, UniProt P15917); type: biochemical
[1] = test system: chick spinal motor neurons
BoNT/A holotoxin = BoNT/A holotoxin (Clostridium botulinum, UniProt P0DPI1); type: cell-based
BoNT/A LC [2] = biological target: T1, BoNT/A LC (Clostridium botulinum, UniProt P0DPI0); experiment: biochemical; type: binding
[3] = biological target: BoNT/A LC metalloprotease (Clostridium botulinum, UniProt P0DPI0); experiment: biochemical
BoNT/A LC [4] = biological target: T1, BoNT/A LC; settings: cited from earlier work

T1 sequence (P0DPI0 2-448 limits assumed): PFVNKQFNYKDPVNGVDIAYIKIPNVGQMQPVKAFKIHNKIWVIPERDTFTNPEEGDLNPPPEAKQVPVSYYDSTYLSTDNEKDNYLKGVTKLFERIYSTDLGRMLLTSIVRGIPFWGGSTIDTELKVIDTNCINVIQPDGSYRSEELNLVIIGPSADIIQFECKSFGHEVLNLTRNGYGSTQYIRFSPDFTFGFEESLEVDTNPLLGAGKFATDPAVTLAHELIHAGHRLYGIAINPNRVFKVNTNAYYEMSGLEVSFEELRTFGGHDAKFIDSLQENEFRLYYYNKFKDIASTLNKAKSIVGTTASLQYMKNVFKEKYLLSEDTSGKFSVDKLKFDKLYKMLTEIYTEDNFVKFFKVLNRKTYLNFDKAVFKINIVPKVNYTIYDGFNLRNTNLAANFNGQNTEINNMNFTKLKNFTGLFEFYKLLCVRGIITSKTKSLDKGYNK
Chain of BoNT/A LC metalloprotease (P0DPI0 2-448 limits assumed): as above
Chain of anthrax lethal factor (P15917 34-809 limits assumed): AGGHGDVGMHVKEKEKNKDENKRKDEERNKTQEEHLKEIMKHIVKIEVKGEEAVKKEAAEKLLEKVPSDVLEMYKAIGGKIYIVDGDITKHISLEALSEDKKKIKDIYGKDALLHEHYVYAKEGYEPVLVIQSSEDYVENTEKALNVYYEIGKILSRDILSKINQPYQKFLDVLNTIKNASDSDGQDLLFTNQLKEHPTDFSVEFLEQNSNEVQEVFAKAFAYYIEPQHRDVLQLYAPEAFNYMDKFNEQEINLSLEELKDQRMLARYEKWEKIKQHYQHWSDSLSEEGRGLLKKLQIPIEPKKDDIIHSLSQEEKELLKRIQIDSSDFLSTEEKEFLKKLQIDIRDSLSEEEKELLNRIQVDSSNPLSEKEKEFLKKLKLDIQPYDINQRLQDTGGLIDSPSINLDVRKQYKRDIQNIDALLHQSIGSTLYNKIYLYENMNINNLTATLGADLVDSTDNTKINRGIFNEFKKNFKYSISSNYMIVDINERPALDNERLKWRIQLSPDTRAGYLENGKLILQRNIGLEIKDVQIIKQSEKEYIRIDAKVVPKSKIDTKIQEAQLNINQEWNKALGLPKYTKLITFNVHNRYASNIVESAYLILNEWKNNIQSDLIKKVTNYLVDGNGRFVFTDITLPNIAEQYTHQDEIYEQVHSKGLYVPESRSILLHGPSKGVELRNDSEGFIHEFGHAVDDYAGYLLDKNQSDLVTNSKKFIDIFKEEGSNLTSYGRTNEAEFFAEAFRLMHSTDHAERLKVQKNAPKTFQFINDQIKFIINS
Chain of BoNT/A holotoxin (P0DPI1 2-448 limits assumed): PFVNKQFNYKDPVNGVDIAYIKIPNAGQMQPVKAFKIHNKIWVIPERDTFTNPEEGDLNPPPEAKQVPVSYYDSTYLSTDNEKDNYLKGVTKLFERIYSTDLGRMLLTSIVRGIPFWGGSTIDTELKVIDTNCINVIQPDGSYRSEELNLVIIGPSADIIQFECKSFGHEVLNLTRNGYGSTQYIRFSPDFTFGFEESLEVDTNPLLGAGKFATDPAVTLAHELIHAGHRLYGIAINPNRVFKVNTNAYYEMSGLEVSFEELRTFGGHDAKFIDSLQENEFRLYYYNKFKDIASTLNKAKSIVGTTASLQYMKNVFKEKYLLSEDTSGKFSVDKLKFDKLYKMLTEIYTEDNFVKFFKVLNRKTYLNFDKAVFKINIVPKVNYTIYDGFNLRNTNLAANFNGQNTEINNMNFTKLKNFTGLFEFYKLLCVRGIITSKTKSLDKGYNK

Row | Molecule | inhibition of protease activity of anthrax lethal factor (anthrax lethal factor) | % Inhibition of BoNT/A LC metalloprotease activity [3] [%] | other results
1 | N=C(N)c1ccc(Oc2ccc(-c3cc4ccc(C(=N)N)cc4[nH]3)cc2)cc1 [NSC 240898] | inhibit the protease activity of anthrax lethal factor | 61 | morphological signs of damage (tubulin, actin, DNA staining) [1]: little or no morphological signs of damage; concentration tolerated by cells without substantial cytotoxic effects ([1]; chick): about 40 μM; inhibition of SNAP-25 cleavage (BoNT/A holotoxin): robust dose-dependent inhibition; ΔH (BoNT/A LC [2]): −3.04 and −3.04 ± 0.20 kcal mol^−1; ΔS (BoNT/A LC [2]): 14 and 14.0 cal mol^−1 K^−1; Kd (BoNT/A LC [2]; Kd): ~4.6 µM and 4.6 µM; Ka (BoNT/A LC [2]; pH 7.4): 218000 ± 45000 M⁻¹; N (number of binding sites, stoichiometry) (BoNT/A LC [2]; pH 7.4): 0.83±0.04
2 | N=C(N)c1ccc2oc(/C=C/c3cc4cc(C(=N)N)ccc4s3)cc2c1 [NSC 266472] |  | 57 | 
3 | C(=C\c1cc2cc(C3=NCCN3)ccc2o1)/c1cc2cc(C3=NCCN3)ccc2o1 [NSC 278999] |  | 53 | 
4 | N=C(N)c1ccc2[nH]c(/C=C/c3cc4cc(C(=N)N)ccc4o3)cc2c1 [NSC 290107] | inhibit the protease activity of anthrax lethal factor | 52 | 
5 | C(=C\c1cc2cc(C3=NCCN3)ccc2o1)/c1cc2cc(C3=NCCN3)ccc2[nH]1 [NSC 290108] | inhibit the protease activity of anthrax lethal factor | 51 | 
6 | N=C(N)c1ccc2cc(/C=C/c3cc4ccc(C(=N)N)cc4o3)[nH]c2c1 [NSC 294200] | inhibit the protease activity of anthrax lethal factor | 48 | 
7 | N=C(N)c1ccc2[nH]c(/C=C/c3cc4ccc(C(=N)N)cc4o3)cc2c1 [NSC 294203] | inhibit the protease activity of anthrax lethal factor | 46 | 
8 | C(=C\c1cc2ccc(C3=NCCN3)cc2o1)/c1cc2cc(C3=NCCN3)ccc2[nH]1 [NSC 294204] | inhibit the protease activity of anthrax lethal factor | 38 | 
9 | C(=C\c1cc2ccc(C3=NCCN3)cc2o1)/c1cc2ccc(C3=NCCN3)cc2o1 [NSC 294494] |  | 45 | 
10 | N=C(N)c1ccc2oc(/C=C/C=C/c3cc4cc(C(=N)N)ccc4o3)cc2c1 [NSC 300511] | inhibit the protease activity of anthrax lethal factor | 37 | 
11 | C(/C=C/c1cc2cc(C3=NCCN3)ccc2o1)=C\c1cc2cc(C3=NCCN3)ccc2o1 [NSC 308571] | inhibit the protease activity of anthrax lethal factor | 52 | 
12 | N=C(N)c1ccc2oc(/C=C/C=C/C=C/c3cc4cc(C(=N)N)ccc4o3)cc2c1 [NSC 308574] | inhibit the protease activity of anthrax lethal factor | 63 | concentration at which highly cytotoxic ([1]; chick): 1000 to 5000 nM
13 | C(=C\c1cc2ccc(C3=NCCN3)cc2[nH]1)/c1cc2ccc(C3=NCCN3)cc2[nH]1 [NSC 317880] | inhibit the protease activity of anthrax lethal factor | 35 | 
14 | c1cc2cc(-c3ccc(-c4cc5ccc(C6=NCCN6)cc5[nH]4)cc3)[nH]c2cc1C1=NCCN1 [NSC 317881] | inhibit the protease activity of anthrax lethal factor | 45 | 
15 | C(=C\c1cc2cc(C3=NCCN3)ccc2s1)/c1ccc(C2=NCCN2)cc1 [NSC 317883] |  | 41 | 
16 | N=C(N)c1ccc(/C=C/c2cc3cc(C(=N)N)ccc3[nH]2)cc1 [NSC 317884] | inhibit the protease activity of anthrax lethal factor | 47 | 
17 | N=C(N)c1ccc(/C=C/c2cc3ccc(C(=N)N)cc3[nH]2)cc1 [NSC 317886] | inhibit the protease activity of anthrax lethal factor | 43 | 
18 | CCN(CC)CCCNc1cc(C)nc2c1ccc1c2ccc2c(NCCCN(CC)CC)cc(C)nc21 [NSC 328398] |  |  | inhibition at 10 µM ([3]; at 10 μM): 45%
19 | c1cc2cc(-c3cc4ccc(C5=NCCN5)cc4[nH]3)[nH]c2cc1C1=NCCN1 [NSC 330688] |  | 43 | 
20 | C(=C\c1cc2ccc(C3=NCCN3)cc2[nH]1)/c1ccc(Oc2ccc(C3=NCCN3)cc2)cc1 [NSC 330690] |  | 53 | 
21 | C(=C\c1cc2ccc(C3=NCCN3)cc2[nH]1)/c1ccc2cc(C3=NCCN3)[nH]c2c1 [NSC 341907] | inhibit the protease activity of anthrax lethal factor | 60 | 
22 | N=C(N)N/N=C/c1ccc(-c2cc3ccc(/C=N/NC(=N)N)cc3s2)cc1 [NSC 341909] | inhibit the protease activity of anthrax lethal factor | 68 | concentration at which highly cytotoxic ([1]; chick): 1000 to 5000 nM
23 | C1=NC(c2ccc3cc(-c4c(-c5ccc(C6=NCCN6)cc5)[nH]c5cc(C6=NCCN6)ccc45)[nH]c3c2)NC1 (stereo not shown) [NSC 341911] | inhibit the protease activity of anthrax lethal factor | 37 | 
24 | C(=C\c1ccc2[nH]c(C3=NCCN3)cc2c1)/c1ccc(Oc2ccc(C3=NCCN3)cc2)cc1 [NSC 352341] |  | 40 | 
25 | C(=C/c1cc2cc(C3=NCCN3)ccc2o1)/c1cc2cc(C3=NCCN3)ccc2o1 [NSC 607617] |  | 36 | 
26 | C[C@H](CS)C(=O)N1CCC[C@H]1C(=O)O [captopril] |  |  | inhibition of BoNT/A LC by known protease inhibitors (BoNT/A LC [4]): inhibited by mM concentrations
27 | CCOC(=O)[C@H](CCc1ccccc1)N[C@@H](C)C(=O)N1CCC[C@H]1C(=O)O [enalapril] |  |  | inhibition of BoNT/A LC by known protease inhibitors (BoNT/A LC [4]): inhibited by mM concentrations
28 | NCCCC[C@H](N[C@@H](CCc1ccccc1)C(=O)O)C(=O)N1CCC[C@H]1C(=O)O [lysinopril] |  |  | inhibition of BoNT/A LC by known protease inhibitors (BoNT/A LC [4]): inhibited by mM concentrations
29 | CRATKML |  |  | inhibitor potency in words (BoNT/A LC [4]): potent inhibitor

From patent publication US20110086877A1 (priority 2005, published 2011)
